Literature values as cited in US20260014182A1, “METHOD OF TREATING CANCER” (M.T.3, Inc., priority 2019, published 2026).

Tested on: angiogenesis
Conditions: in-vitro test, used with radiation

Row | Compound | angiogenesis
1 | CCCCCCCCCC(=O)OCCCO[C@H]1O[C@H](CS(=O)(=O)[O-])[C@@H](O)[C@H](O)[C@H]1O.[Na+] [αSQAP C10:0] | inhibited
2 | CCCCCCCCCCCCCC(=O)OCCCO[C@H]1O[C@H](CS(=O)(=O)[O-])[C@@H](O)[C@H](O)[C@H]1O.[Na+] [αSQAP C14:0] | inhibited
3 | CCCCCCCCCCCCCCCCCCCCCC(=O)OCCCO[C@H]1O[C@H](CS(=O)(=O)[O-])[C@@H](O)[C@H](O)[C@H]1O.[Na+] [αSQAP C22:0] | inhibited
4 | CCCCCCCCCCCCCCCCCC(=O)OCCCO[C@@H]1O[C@H](CS(=O)(=O)[O-])[C@@H](O)[C@H](O)[C@H]1O.[Na+] [βSQAP C18:0] | inhibited
